In article PMC2074754, “Effects of the selective bisindolylmaleimide protein kinase C inhibitor GF 109203X on P-glycoprotein-mediated multidrug resistance” (British Journal of Cancer, 1996):

Experiments:
[1] = molecular target: T1, P-glycoprotein (P-gp, MDR1) (Homo sapiens, UniProt P08183); assay: [3H]vinblastine radioligand competition and inhibition of [3H]azidopine photoaffinity labelling of the […] kDa P-gp band; type: binding
T1 construct: gene ABCB1

[2] = molecular target: T1, P-glycoprotein (P-gp, MDR1); assay: radioligand binding with self-competition by unlabelled vinblastine

T1 sequence (P08183 whole entry): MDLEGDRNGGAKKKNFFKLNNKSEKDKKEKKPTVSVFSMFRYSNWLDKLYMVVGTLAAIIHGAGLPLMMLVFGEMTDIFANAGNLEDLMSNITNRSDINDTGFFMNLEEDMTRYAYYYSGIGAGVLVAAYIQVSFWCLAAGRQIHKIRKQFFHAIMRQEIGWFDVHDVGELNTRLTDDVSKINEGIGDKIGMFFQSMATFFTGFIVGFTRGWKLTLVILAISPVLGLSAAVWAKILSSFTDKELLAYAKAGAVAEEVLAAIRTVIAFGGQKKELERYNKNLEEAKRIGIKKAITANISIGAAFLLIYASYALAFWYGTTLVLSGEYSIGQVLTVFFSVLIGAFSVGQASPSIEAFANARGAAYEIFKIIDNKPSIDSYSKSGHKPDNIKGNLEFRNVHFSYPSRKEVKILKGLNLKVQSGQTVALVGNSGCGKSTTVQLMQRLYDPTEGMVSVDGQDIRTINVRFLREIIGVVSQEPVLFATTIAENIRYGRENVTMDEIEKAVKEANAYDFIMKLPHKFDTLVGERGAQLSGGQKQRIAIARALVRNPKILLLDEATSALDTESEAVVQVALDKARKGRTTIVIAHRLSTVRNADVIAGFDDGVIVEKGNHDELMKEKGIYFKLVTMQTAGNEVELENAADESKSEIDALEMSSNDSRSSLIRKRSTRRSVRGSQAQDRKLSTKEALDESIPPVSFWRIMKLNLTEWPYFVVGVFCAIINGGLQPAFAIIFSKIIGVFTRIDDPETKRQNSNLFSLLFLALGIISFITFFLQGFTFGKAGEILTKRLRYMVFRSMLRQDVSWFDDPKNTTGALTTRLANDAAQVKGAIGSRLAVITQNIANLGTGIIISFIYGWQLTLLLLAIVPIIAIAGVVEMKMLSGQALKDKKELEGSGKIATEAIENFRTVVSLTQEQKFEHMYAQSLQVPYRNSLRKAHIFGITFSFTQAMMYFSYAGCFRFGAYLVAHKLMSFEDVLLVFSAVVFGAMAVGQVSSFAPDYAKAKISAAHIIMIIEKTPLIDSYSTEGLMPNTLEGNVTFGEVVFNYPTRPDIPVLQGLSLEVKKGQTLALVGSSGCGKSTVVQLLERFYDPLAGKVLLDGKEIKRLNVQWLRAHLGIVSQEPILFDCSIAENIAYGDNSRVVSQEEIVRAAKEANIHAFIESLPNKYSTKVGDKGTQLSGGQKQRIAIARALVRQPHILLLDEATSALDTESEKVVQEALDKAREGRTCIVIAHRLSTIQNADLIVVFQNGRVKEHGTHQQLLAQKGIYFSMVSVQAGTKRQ

**Q.** For CN(C)CCCn1cc(C2=C(c3c[nH]c4ccccc34)C(=O)NC2=O)c2ccccc21 [GF 109203X], which “[3H]vinblastine radioligand competition and inhibition of [3H]azidopine photoaff” value [1] is on record?
**A.** The value was “Inhibition of the photo- affinity labelling was observed in a similar micromolar”.

**Q.** CC[C@]1(O)C[C@@H]2CN(CCc3c([nH]c4ccccc34)[C@@](C(=O)OC)(c3cc4c(cc3OC)N(C)[C@H]3[C@@](O)(C(=O)OC)[C@H](OC(C)=O)[C@]5(CC)C=CCN6CC[C@]43[C@@H]65)C2)C1 [vinblastine sulphate] was tested. Which “radioligand binding with self-competition by unlabelled vinblastine” value [2] did it give?
**A.** The value was “Competition of [3H]vinblastine sulphate binding by unlabelled vinblastine sulphate was included as a control”.
